Experimental data reported in US8080539B2, “Method of treating human preeclampsia employing resibufagenin” (Scott and White Healthcare, priority 2004, dated 2011).
Values joined by “and” are separate entries in the source; they are usually repeats but may differ in a detail not shown here. Identical values can stand only once.

Legend:
[1] = system: pregnant rats; assay: Blood pressure (tail cuff) in pregnant rats made hypertensive with MBG, then treated with RBG; type: in vivo, rat
Method: In order to confirm the effectiveness of RBG, experiments were performed. In the experiment, a group of four pregnant rats was provided with a blood pressure cuff on their tails in order to determine the base line blood pressure as shown in the table. In order to create hypertension, MBG was administered to the rats.
A dosage of approximately 7 mg per kg of rat weight with the rats weighing in the range of about 200-250 g was employed daily in order to determine the effectiveness of resibufagenin in the treatment of preeclampsia. The dosage was administered intraperitonially and the rats monitored after about three to four days of treatment. The MBG and RBG were administered in a suitable vehicle such as dimethylsulfoxide (DMSO).

[2] = system: cellular systems; conditions: cited from earlier work
[3] = system: vessels from preeclamptic rats; assay: Perfusion of dissected vessels from preeclamptic rats with marinobufagenin; parameters: species or system rat; conditions: vessels from preeclamptic rats perfused with marinobufagenin; average
Text: (§1) It is elevated substantially more in preeclamptic rats.

[4] = system: vessels from normal pregnant animals or rats; assay: Perfusion of dissected vessels from normal pregnant rats with marinobufagenin; parameters: species or system rat; conditions: vessels from normal pregnant rats perfused with marinobufagenin
Text: as §1

C[C@]12CC[C@H](O)C[C@H]1CC[C@@H]1[C@@H]2CC[C@]2(C)[C@@H](c3ccc(=O)oc3)C[C@H]3O[C@]132 [RBG, Resibufagenin]
change in blood pressure after treatment with RBG ([1]; all four pregnant rats, approximately 7 mg per kg daily intraperitoneally, about three to four days): substantial reduction in blood pressure
BP after RBG ([1]; individual pregnant rats made hypertensive with MBG, RBG approximately 7 mg per kg daily intraperitoneally in DMSO, after about three to four days of treatment): 95 mmHg and 120 mmHg and 110 mmHg and 105 mmHg
biological effect in cellular systems [2]: no biological effect

C[C@]12CC[C@H](O)C[C@@]1(O)CC[C@@H]1[C@@H]2CC[C@]2(C)[C@@H](c3ccc(=O)oc3)C[C@H]3O[C@]132 [MBG, marinobufagenin]
constriction of vessels as compared with control [3]: about 36%
BP after MBG ([1]; individual pregnant rats, tail blood pressure cuff, MBG administered to create hypertension): 125 mmHg and 130 mmHg and 115 mmHg and 135 mmHg
constriction of vessels [4]: do not constrict
